Where two headings read alike, the source gives them in different places.
How the values were obtained:
Test in all cases: biochemical
Design in all cases: KINOMEscan scanMAX competition binding, DNA-tagged kinases, qPCR read-out, percent control at 300 nM
[1] = target: T1, RIPK4 (Homo sapiens, UniProt P57078)
T1 sequence (P57078 1-832): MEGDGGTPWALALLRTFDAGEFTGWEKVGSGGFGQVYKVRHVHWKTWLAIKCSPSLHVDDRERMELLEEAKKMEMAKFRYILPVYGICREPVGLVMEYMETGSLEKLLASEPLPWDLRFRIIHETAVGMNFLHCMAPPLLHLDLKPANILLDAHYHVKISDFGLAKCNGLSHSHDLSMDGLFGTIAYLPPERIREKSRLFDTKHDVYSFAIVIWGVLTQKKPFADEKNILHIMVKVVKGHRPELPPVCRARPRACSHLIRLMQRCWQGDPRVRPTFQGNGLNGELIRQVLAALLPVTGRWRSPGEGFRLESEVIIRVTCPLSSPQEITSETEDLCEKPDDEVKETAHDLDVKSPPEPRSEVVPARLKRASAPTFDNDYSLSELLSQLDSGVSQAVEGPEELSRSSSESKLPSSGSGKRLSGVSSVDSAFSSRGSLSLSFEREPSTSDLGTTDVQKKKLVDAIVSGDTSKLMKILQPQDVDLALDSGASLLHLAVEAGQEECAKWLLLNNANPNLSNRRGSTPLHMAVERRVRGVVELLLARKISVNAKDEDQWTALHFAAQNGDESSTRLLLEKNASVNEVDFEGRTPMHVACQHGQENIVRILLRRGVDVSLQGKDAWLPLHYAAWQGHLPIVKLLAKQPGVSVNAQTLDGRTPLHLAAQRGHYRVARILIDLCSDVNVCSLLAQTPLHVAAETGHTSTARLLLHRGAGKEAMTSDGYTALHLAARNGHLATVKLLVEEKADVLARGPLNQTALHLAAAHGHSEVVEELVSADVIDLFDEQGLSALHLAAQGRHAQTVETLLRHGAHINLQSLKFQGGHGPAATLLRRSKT

[2] = target: DYRK1B (Homo sapiens, UniProt Q9Y463)
[3] = target: RIPK2 (Homo sapiens, UniProt O43353)
[4] = target: EGFR(L858R) (Homo sapiens, UniProt P00533, L858R)
[5] = target: T2, LATS1 (Homo sapiens, UniProt O95835)
T2 sequence (O95835 1-1130): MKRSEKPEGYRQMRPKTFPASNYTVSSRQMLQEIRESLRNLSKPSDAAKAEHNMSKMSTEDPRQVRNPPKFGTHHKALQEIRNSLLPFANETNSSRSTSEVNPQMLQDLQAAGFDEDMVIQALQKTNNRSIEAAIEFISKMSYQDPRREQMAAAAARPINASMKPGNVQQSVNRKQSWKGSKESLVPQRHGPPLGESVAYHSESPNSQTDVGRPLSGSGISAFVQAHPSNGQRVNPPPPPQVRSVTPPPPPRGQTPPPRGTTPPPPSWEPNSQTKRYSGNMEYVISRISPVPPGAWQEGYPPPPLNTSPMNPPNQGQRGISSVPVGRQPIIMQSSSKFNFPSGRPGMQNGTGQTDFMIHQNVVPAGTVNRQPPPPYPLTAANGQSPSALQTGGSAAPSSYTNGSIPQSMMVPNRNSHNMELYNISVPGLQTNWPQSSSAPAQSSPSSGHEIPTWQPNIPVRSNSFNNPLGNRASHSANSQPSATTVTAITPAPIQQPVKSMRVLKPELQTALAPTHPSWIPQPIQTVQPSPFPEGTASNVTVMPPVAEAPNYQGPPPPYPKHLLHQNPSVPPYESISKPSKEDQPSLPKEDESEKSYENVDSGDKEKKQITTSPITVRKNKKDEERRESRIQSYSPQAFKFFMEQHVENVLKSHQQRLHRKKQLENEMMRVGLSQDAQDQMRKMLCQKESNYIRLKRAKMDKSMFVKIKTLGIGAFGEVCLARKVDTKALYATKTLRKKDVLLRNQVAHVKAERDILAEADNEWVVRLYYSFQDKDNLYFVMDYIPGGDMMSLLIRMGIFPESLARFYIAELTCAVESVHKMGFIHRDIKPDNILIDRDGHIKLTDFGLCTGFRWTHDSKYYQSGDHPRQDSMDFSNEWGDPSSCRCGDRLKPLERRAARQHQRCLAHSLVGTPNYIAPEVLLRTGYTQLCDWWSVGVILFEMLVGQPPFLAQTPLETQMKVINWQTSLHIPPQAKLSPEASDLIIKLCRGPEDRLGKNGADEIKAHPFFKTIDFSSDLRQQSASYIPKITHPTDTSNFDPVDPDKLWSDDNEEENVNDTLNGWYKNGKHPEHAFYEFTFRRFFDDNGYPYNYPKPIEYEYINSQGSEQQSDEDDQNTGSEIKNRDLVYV

[6] = target: T3, PHKG2 (Homo sapiens, UniProt P15735)
T3 sequence (P15735 1-406): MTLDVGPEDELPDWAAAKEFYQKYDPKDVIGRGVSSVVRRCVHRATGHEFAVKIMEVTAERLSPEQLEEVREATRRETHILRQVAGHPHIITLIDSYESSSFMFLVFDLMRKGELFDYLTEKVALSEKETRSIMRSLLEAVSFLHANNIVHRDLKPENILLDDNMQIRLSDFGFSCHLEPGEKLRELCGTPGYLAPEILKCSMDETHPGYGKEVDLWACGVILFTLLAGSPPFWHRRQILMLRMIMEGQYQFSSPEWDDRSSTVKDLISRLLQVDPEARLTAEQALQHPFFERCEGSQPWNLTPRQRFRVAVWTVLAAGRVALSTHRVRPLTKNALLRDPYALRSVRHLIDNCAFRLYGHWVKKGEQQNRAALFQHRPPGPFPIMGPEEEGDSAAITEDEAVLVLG

[7] = read-out: Percent control / Acalabrutinib
[8] = read-out: Percent control / Ibrutinib
[9] = read-out: Percent control / Tirabrutinib
[10] = read-out: Percent control / Zanubrutinib

RIPK2, sequence (O43353 whole entry): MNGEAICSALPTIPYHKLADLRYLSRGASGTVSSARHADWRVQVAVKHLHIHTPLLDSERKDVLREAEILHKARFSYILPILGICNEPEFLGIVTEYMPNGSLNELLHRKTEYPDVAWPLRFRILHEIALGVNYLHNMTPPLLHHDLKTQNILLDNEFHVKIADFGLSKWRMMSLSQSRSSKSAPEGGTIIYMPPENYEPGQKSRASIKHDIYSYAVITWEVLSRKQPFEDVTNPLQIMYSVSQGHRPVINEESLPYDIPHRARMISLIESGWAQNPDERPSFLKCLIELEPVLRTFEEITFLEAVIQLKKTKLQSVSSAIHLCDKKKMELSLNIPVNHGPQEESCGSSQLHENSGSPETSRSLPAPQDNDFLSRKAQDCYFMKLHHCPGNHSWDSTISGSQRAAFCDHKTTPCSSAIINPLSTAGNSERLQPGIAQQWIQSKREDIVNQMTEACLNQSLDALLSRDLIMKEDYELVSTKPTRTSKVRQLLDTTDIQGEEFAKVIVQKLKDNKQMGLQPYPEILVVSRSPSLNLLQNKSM
DYRK1B, sequence (Q9Y463 whole entry): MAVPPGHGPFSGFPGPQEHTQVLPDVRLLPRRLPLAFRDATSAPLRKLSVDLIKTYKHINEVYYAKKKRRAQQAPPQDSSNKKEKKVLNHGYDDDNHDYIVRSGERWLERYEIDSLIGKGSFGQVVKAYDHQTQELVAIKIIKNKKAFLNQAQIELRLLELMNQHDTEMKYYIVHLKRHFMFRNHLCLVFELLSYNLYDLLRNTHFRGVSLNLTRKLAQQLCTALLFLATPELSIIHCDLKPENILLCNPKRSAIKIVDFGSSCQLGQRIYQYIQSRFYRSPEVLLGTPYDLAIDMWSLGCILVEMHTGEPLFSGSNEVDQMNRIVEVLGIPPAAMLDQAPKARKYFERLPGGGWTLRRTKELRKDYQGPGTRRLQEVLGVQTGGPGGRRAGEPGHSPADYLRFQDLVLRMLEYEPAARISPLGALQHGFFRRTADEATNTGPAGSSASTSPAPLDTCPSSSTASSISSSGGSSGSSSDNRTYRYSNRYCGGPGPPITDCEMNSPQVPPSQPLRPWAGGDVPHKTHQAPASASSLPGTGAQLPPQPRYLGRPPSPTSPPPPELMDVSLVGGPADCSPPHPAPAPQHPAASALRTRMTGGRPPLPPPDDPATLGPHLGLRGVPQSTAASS
EGFR(L858R), sequence (P00533 whole entry L858R): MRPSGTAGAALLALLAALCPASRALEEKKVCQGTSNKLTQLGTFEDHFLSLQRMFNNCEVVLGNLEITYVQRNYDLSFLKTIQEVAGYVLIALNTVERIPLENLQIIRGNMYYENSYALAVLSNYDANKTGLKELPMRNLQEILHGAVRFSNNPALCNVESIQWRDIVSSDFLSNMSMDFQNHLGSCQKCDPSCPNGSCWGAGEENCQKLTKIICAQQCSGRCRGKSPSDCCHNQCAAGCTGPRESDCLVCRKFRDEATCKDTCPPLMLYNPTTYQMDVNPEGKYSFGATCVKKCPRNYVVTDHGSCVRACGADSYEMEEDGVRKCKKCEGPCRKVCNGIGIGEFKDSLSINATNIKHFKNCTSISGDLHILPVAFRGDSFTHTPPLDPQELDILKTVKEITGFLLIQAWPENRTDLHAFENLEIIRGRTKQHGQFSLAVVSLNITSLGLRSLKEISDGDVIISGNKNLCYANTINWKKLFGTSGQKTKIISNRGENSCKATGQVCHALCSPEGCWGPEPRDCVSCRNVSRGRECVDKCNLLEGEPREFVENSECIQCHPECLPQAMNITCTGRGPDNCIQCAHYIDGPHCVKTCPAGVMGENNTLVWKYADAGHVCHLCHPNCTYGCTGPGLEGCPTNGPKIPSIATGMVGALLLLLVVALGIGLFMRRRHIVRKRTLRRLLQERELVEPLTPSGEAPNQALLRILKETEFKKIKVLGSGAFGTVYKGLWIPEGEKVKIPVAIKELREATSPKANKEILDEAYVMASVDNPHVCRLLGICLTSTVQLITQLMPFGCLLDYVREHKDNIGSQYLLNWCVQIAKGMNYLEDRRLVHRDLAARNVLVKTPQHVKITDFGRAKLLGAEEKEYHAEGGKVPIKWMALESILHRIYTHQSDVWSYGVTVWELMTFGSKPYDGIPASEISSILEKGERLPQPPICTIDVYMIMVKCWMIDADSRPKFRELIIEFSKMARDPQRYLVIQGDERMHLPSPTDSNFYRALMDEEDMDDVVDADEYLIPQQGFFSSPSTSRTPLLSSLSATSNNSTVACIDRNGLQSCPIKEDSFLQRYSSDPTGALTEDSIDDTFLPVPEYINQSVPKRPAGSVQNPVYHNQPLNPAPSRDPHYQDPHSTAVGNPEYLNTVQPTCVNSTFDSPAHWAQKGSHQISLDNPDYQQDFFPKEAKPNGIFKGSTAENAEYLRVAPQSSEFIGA

Question: Which remaining binding at 0.3 µM [1, 7] does the source give for `CC#CC(=O)N1CCC[C@H]1c1nc(-c2ccc(C(=O)Nc3ccccn3)cc2)c2c(N)nccn12` [Acalabrutinib] here?
Answer: Its remaining binding at 0.3 µM is 85%.

Question: What about the remaining binding at 0.3 µM [2, 7] of the same molecule?
Answer: The remaining binding at 0.3 µM was 72%.

Question: What about the remaining binding at 0.3 µM [3, 7] of the same molecule?
Answer: Its remaining binding at 0.3 µM is 79%.

Question: And the remaining binding at 0.3 µM [4, 7]?
Answer: Its remaining binding at 0.3 µM is 93%.

Question: And the remaining binding at 0.3 µM [5, 7]?
Answer: The remaining binding at 0.3 µM was 79%.

Question: What does the source list for `C=CC(=O)N1CCC[C@@H](n2nc(-c3ccc(Oc4ccccc4)cc3)c3c(N)ncnc32)C1` [Ibrutinib]?
Answer: remaining binding at 0.3 µM [6, 8]: 81%; remaining binding at 0.3 µM [1, 8]: 76%; remaining binding at 0.3 µM [3, 8]: 6.4%; remaining binding at 0.3 µM [4, 8]: 5.6%; remaining binding at 0.3 µM [5, 8]: 83%

Question: Which remaining binding at 0.3 µM [6, 9] does the source give for `CC#CC(=O)N1CC[C@@H](n2c(=O)n(-c3ccc(Oc4ccccc4)cc3)c3c(N)ncnc32)C1` [Tirabrutinib] here?
Answer: The remaining binding at 0.3 µM was 93%.

Question: What about the remaining binding at 0.3 µM [1, 9] of the same molecule?
Answer: The remaining binding at 0.3 µM was 70%.

Question: And the remaining binding at 0.3 µM [2, 9]?
Answer: Its remaining binding at 0.3 µM is 70%.

Question: And the remaining binding at 0.3 µM [3, 9]?
Answer: The remaining binding at 0.3 µM was 33%.

Question: And the remaining binding at 0.3 µM [4, 9]?
Answer: Its remaining binding at 0.3 µM is 97%.

Question: What does the source list for `C=CC(=O)N1CCC([C@@H]2CCNc3c(C(N)=O)c(-c4ccc(Oc5ccccc5)cc4)nn32)CC1` [Zanubrutinib]?
Answer: remaining binding at 0.3 µM [6, 10]: 92%; remaining binding at 0.3 µM [1, 10]: 91%; remaining binding at 0.3 µM [2, 10]: 71%; remaining binding at 0.3 µM [5, 10]: 72%

From publication PMC10004634 (PLOS ONE, 2023)
